Measurements from ChEMBL document CHEMBL4118176, “N-aryl-piperidine-4-carboxamides as a novel class of potent inhibitors of MALT1 proteolytic activity” (Bioorg Med Chem Lett, 2018).
pEC50, pIC50: −log10 of the molar value. Values after ≈ are worked out from the molar mass of the structure shown. Each block holds one compound with its values, some of them ahead of it.

How the values were obtained:
[1] = AUC in rat at 1 mg/kg, iv; type: ADME, organism-based; details: in vivo
[2] = Half life in rat at 1 mg/kg, iv or 3 mg/kg, po; type: ADME, organism-based; details: in vivo
[3] = Apparent permeability from apical to basolateral side in human Caco2 cells; type: ADME, cell-based; details: Caco-2
[4] = Solubility of the compound in buffer at pH 6.8; type: physicochemical
[5] = Oral bioavailability in rat at 3 mg/kg; type: ADME, organism-based; details: in vivo
[6] = Solubility of the compound in buffer at pH 4; type: physicochemical
[7] = target: T1, Mucosa-associated lymphoid tissue lymphoma translocation protein 1 (Homo sapiens, UniProt Q9UDY8); assay: Inhibition of MALT1 (unknown origin) using Ac-Trp-Leu-Arg-Ser-Arg'Cys(PT14)-NH2 as substrate preincubated for 60 mins followed by substrate addition measured after 60 mins by fluorescence assay
T1 sequence (Q9UDY8 whole entry): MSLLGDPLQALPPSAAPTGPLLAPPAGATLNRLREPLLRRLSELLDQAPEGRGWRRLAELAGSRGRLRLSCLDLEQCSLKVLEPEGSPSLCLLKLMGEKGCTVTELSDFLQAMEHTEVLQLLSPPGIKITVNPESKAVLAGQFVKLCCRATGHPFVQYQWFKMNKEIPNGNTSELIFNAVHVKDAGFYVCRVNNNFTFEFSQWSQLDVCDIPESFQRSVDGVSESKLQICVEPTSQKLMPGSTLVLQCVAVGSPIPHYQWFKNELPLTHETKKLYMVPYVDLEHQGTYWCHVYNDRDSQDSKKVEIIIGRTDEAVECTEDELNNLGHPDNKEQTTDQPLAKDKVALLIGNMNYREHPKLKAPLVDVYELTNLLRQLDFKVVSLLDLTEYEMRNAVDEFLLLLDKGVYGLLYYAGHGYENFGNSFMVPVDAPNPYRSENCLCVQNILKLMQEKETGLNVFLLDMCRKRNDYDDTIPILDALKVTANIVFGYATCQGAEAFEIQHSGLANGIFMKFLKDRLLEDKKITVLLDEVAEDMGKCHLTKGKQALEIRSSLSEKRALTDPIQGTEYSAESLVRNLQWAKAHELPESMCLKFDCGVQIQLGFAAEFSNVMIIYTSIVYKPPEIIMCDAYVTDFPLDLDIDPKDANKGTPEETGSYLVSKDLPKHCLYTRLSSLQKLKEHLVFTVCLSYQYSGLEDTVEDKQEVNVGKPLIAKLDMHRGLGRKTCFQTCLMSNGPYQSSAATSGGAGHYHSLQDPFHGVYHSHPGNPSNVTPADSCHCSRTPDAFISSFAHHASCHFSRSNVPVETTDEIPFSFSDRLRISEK

[8] = Clearance in rat at 1 mg/kg, iv or 3 mg/kg, po; type: ADME, organism-based; details: in vivo
[9] = target: Mucosa-associated lymphoid tissue lymphoma translocation protein 1 (Homo sapiens, UniProt Q9UDY8); assay: Inhibition of cIAP2 fused MALT1 (unknown origin) expressed in HEK293 cells assessed as suppression of NF-kB activation after 24 hrs by luciferase reporter gene assay; type: cell-based
[10] = Volume of distribution at steady state in rat at 1 mg/kg, iv or 3 mg/kg, po; type: ADME, organism-based; details: in vivo, read-out: Vdss
[11] = Clearance in rat liver microsomes; type: ADME, microsome; details: read-out: CLH
[12] = Clearance in rat hepatocytes assessed per 10^6 cells; type: ADME, cell-based, Hepatocyte
[13] = target: T1, Mucosa-associated lymphoid tissue lymphoma translocation protein 1; assay: Inhibition of MALT1 in human OCI-LY3 cells assessed a decrease in BCL10 cleavage after 24 hrs by ELISA; type: cell-based
[14] = test system: BJAB; assay: Antiproliferative activity against human BJAB cells after 72 hrs by CellTiterGlo assay; type: functional, cell-based
[15] = test system: OCI-Ly3; assay: Antiproliferative activity against human OCI-LY3 cells after 72 hrs by CellTiterGlo assay; type: functional, cell-based; details: OCI-Ly3, 72 h
[16] = target: T1, Mucosa-associated lymphoid tissue lymphoma translocation protein 1; assay: Inhibition of MALT1 in PMA-stimulated human Jurkat T cells assessed as reduction in IL2 level pretreated for 30 mins followed by PMA-stimulation measured after 5.5 hr by bioluminescence assay; type: cell-based

AUC [1]: 623 nM·h
half-life [2]: 144 min
Papp A→B [3]: 72 nm/s
solubility [4]: 16 µM (≈ 7.42 µg/mL)
bioavailability [5]: 46%
solubility [6]: 690 µM (≈ 320 µg/mL)
pIC50 [7]: 6.47
clearance [8]: 3.36 L/h/kg
pIC50 [9]: 5.52
Vd [10]: 8.7 L/kg
CLint scaled [11]: 3.61 L/h/kg
CLH [12]: 18.8 µL/min/1e6 cells
SMILES: Cc1cn(-c2cc(NC(=O)C3CCN(c4ncccc4Cl)CC3)cc(C(F)(F)F)c2)cn1

pEC50 [13]: 5.68
pIC50 [7]: 6.38
pIC50 [9]: 5.57
SMILES: N#Cc1cccnc1N1CCC(C(=O)Nc2ccc(F)c(Cl)c2)CC1

pEC50 [13]: 5.82
pIC50 [7]: 7.55
pIC50 [9]: 5.87
SMILES: O=C(Nc1ccc(F)c(Cl)c1)C1CCN(c2ncccc2Cl)CC1

AUC [1]: 125 nM·h
half-life [2]: 36 min
pEC50 [13]: 6.68
Papp A→B [3]: 82 nm/s
solubility [4]: < 4 µM
solubility [6]: 8 µM (≈ 3.79 µg/mL)
pIC50 [7]: 7.68
clearance [8]: 16.9 L/h/kg
pIC50 [9]: 6.85
Vd [10]: 7.5 L/kg
CLint scaled [11]: 3.59 L/h/kg
CLH [12]: 228 µL/min/1e6 cells
SMILES: CNC(=O)c1ncn(-c2ccc(NC(=O)C3CCN(c4ncccc4Cl)CC3)cc2Cl)n1

pEC50 [13]: 6.40
pIC50 [7]: 7.00
pIC50 [9]: 6.54
SMILES: O=C(Nc1ccc(F)c(Cl)c1)C1CCN(c2nccnc2Cl)CC1

pIC50 [7]: < 4.00
SMILES: O=C(Nc1ccc(F)c(Cl)c1)C1CCN(Cc2ccc(F)cc2)CC1

pIC50 [7]: 5.72
SMILES: O=C(Nc1ccc(F)c(Cl)c1)C1CCN(c2ccccn2)CC1

pEC50 [13]: 6.64
pEC50 [15]: 5.85
pIC50 [7]: 8.40
pIC50 [9]: 7.05
pIC50 [16]: 7.30
SMILES: O=C(Nc1cnc(-n2nccn2)c(Cl)c1)C1CCN(c2ncccc2Cl)CC1
pEC50 [14]: < 5.00

AUC [1]: 914 nM·h
half-life [2]: 30 min
solubility [4]: 7 µM (≈ 3.19 µg/mL)
bioavailability [5]: 46%
solubility [6]: 170 µM (≈ 77.5 µg/mL)
pIC50 [7]: 6.74
clearance [8]: 2.58 L/h/kg
pIC50 [9]: 6.19
Vd [10]: 1.1 L/kg
CLint scaled [11]: 1.74 L/h/kg
CLH [12]: 4.1 µL/min/1e6 cells
SMILES: Cc1nc(C)n(-c2ccc(NC(=O)C3CCN(c4ncccc4[N+](=O)[O-])CC3)cc2Cl)n1

pIC50 [7]: < 4.00
SMILES: O=C(NC1CCCCC1)C1CCN(c2ncccc2Cl)CC1

pIC50 [7]: < 4.00
SMILES: CC(C)CN1CCC(C(=O)Nc2ccc(F)c(Cl)c2)CC1

pEC50 [13]: 5.47
pIC50 [7]: 6.68
pIC50 [9]: 5.80
SMILES: O=C(Nc1cccc(Cl)c1)C1CCN(c2ncccc2Cl)CC1

pEC50 [13]: 5.27
pIC50 [7]: 5.79
pIC50 [9]: 5.51
SMILES: O=C(Nc1ccc(F)c(Cl)c1)C1CCN(c2ncccn2)CC1

pEC50 [13]: 6.35
pIC50 [7]: 7.89
pIC50 [9]: 6.72
SMILES: COc1ncc(NC(=O)C2CCN(c3ncccc3Cl)CC2)cc1Cl

AUC [1]: 161 nM·h
half-life [2]: 18 min
pEC50 [13]: 6.72
Papp A→B [3]: 194 nm/s
pEC50 [15]: 5.70
solubility [4]: < 4 µM
solubility [6]: 48 µM (≈ 19.1 µg/mL)
pIC50 [7]: 7.46
clearance [8]: 15.5 L/h/kg
pIC50 [9]: 6.96
Vd [10]: 4.1 L/kg
CLint scaled [11]: 6.12 L/h/kg
SMILES: Nc1cccnc1N1CCC(C(=O)Nc2ccc(-n3nccn3)c(Cl)c2)CC1
pEC50 [14]: < 5.00

pIC50 [7]: 5.33
SMILES: O=C(Nc1ccccc1)C1CCN(c2ncccc2Cl)CC1

pEC50 [13]: 5.04
pIC50 [7]: 6.09
pIC50 [9]: 5.49
SMILES: O=C(Nc1ccc(F)c(Cl)c1)C1CCN(c2ccccc2)CC1

AUC [1]: 143 nM·h
half-life [2]: 120 min
solubility [4]: < 4 µM
solubility [6]: < 4 µM
pIC50 [7]: 7.27
clearance [8]: 19.2 L/h/kg
pIC50 [9]: 5.43
Vd [10]: 21.4 L/kg
CLint scaled [11]: 4.86 L/h/kg
CLH [12]: 173 µL/min/1e6 cells
SMILES: Cc1ccc(NC(=O)C2CCN(c3ncccc3Cl)CC2)cc1Cl

pEC50 [13]: 6.25
pEC50 [15]: 5.44
pIC50 [7]: 8.15
pIC50 [9]: 7.05
pIC50 [16]: 7.10
SMILES: Nc1cccnc1N1CCC(C(=O)Nc2cnc(-n3nccn3)c(Cl)c2)CC1
pEC50 [14]: < 5.00

pEC50 [13]: 6.27
pIC50 [7]: 7.00
pIC50 [9]: 6.38
SMILES: Nc1cccnc1N1CCC(C(=O)Nc2ccc(F)c(Cl)c2)CC1

pIC50 [7]: 5.05
SMILES: N#Cc1ccnc(N2CCC(C(=O)Nc3ccc(F)c(Cl)c3)CC2)c1
